Results on 6 molecules are retold here after PubChem BioAssay (NCI).

By TGI is commonly meant the concentration at which net growth stops. Low readings indicate greater sensitivity of the cells, high ones lower sensitivity of the cells. As usually defined, the GI50 is the concentration giving 50% growth inhibition.

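Exposure lasted 48 hours, with cells grown in 96-well plates and compounds tested at five concentrations. At the GI50, growth is halved. TGI marks complete inhibition of growth.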 Where only a bound is given, the exact number is not on record here.

Some test systems named below: M14 melanoma; SK-MEL-5 melanoma; U251 CNS; MALME-3M melanoma; SNB-19 CNS; OVCAR-4 ovarian; SK-MEL-28 melanoma; SK-OV-3 ovarian; MCF7 breast; K-562 leukemia.
Common to all, as to experiment: DTP human tumour cell line panel, 48 h

In the case of `CCCCCCCCCCCCCC(=O)NO`, the TGI came to 36.2 µM with M14 melanoma; 26.5 µM in the assay with SK-MEL-5 melanoma; 33.8 µM in the assay on U251 CNS; 83.8 µM in the assay on MALME-3M melanoma; 73.2 µM in the assay with SNB-19 CNS; 39.3 µM in the assay on OVCAR-4 ovarian. For the same molecule, the TGI in the assay with SK-MEL-28 melanoma is 75.8 µM; in the assay with SK-OV-3 ovarian, 73.5 µM; in the assay on MCF7 breast it was over 100 µM; in the assay on K-562 leukemia, 34.8 µM.
`COc1ccc2[nH]cc(C3(c4c[nH]c5ccc(OC)cc45)C(=O)Nc4ccc(Cl)cc43)c2c1`: the GI50 in the assay on M14 melanoma is 4.06 µM; in the assay on SK-MEL-5 melanoma, 2.56 µM; in the assay on U251 CNS, 2.88 µM; in the assay on MALME-3M melanoma it was 5.02 µM; with SNB-19 CNS it was 5.14 µM; in the assay with OVCAR-4 ovarian, 3.67 µM. Moreover, the GI50 with SK-MEL-28 melanoma is 3.1 µM; in the assay with SK-OV-3 ovarian, 5.42 µM; in the assay on MCF7 breast it was 3.12 µM; with K-562 leukemia, 3.69 µM. In addition, the TGI in the assay with M14 melanoma is over 100 µM; in the assay with SK-MEL-5 melanoma it was 7.57 µM; in the assay with U251 CNS, 13.4 µM; in the assay with MALME-3M melanoma, 46.5 µM; in the assay on SNB-19 CNS it was over 100 µM; in the assay with OVCAR-4 ovarian, 30.5 µM. In addition, the TGI in the assay with SK-MEL-28 melanoma was 13.1 µM; in the assay on SK-OV-3 ovarian, 23.4 µM; in the assay on MCF7 breast, 42.8 µM; in the assay with K-562 leukemia it was over 100 µM.
In the case of `N#Cc1ccc(C(=O)c2cnn(-c3ccc(F)cc3)c2N)cc1`, the GI50 with M14 melanoma is over 25 µM; in the assay with SK-MEL-5 melanoma, over 25 µM; in the assay on U251 CNS, over 23.1 µM; in the assay on MALME-3M melanoma, over 25 µM; in the assay on SNB-19 CNS it was over 25 µM; with OVCAR-4 ovarian, over 25 µM. The GI50 in the assay on SK-MEL-28 melanoma, in the assay with SK-OV-3 ovarian, in the assay with MCF7 breast and in the assay on K-562 leukemia was over 25 µM in each case. For the same molecule, the TGI with M14 melanoma, with SK-MEL-5 melanoma, with U251 CNS, with MALME-3M melanoma, in the assay with SNB-19 CNS and with OVCAR-4 ovarian was over 25 µM throughout. The TGI in the assay on SK-MEL-28 melanoma, with SK-OV-3 ovarian, in the assay with MCF7 breast and in the assay on K-562 leukemia was over 25 µM each time.
For the molecule `CN(C)c1ccc(/C=N/n2c(CCCCc3n[nH]c(=S)n3/N=C/c3ccc(N(C)C)cc3)n[nH]c2=S)cc1`, the GI50 in the assay with M14 melanoma is over 100 µM; in the assay on SK-MEL-5 melanoma it was over 100 µM; in the assay on U251 CNS, 74 µM; in the assay with MALME-3M melanoma, over 100 µM; in the assay on SNB-19 CNS, over 100 µM; in the assay on OVCAR-4 ovarian, over 100 µM. The GI50 in the assay with SK-MEL-28 melanoma, in the assay on SK-OV-3 ovarian, with MCF7 breast and with K-562 leukemia was over 100 µM in each case. For the same molecule, the TGI with M14 melanoma, in the assay with SK-MEL-5 melanoma, in the assay with U251 CNS, in the assay with MALME-3M melanoma, in the assay with SNB-19 CNS and with OVCAR-4 ovarian was over 100 µM throughout. Also, the total growth inhibition concentration (TGI) in the assay on SK-MEL-28 melanoma, with SK-OV-3 ovarian, in the assay on MCF7 breast and in the assay with K-562 leukemia was over 100 µM throughout.
In the case of `COc1ccc(Cl)cc1Nc1nc(C(F)(F)F)ccc1C(=O)N/N=C/c1ccccc1Cl`, the GI50 was 2.13 µM in the assay on M14 melanoma; 0.583 µM in the assay with SK-MEL-5 melanoma; 1.57 µM in the assay with U251 CNS; 1.75 µM in the assay with MALME-3M melanoma; 2.34 µM in the assay with SNB-19 CNS; 1.93 µM in the assay with OVCAR-4 ovarian. Further, the GI50 in the assay with SK-MEL-28 melanoma was 4.5 µM; in the assay on SK-OV-3 ovarian, 1.58 µM; with MCF7 breast, 1.04 µM; in the assay on K-562 leukemia, 10.7 µM. For the same molecule, the concentration for total growth inhibition (TGI) in the assay on M14 melanoma is 19.4 µM; with SK-MEL-5 melanoma it was 2.96 µM; in the assay on U251 CNS, over 31 µM; in the assay on MALME-3M melanoma, 9.54 µM; with SNB-19 CNS it was over 55.7 µM; in the assay with OVCAR-4 ovarian, over 100 µM. Moreover, the TGI with SK-MEL-28 melanoma is over 100 µM; with SK-OV-3 ovarian it was 12.5 µM; with MCF7 breast, 5.34 µM; in the assay on K-562 leukemia it was over 21.8 µM.
On to `COc1ccc(-c2nsc3c2NC(=O)CC3c2cccc(F)c2)cc1` (stereo not given), for which the GI50 was 3.44 µM in the assay with M14 melanoma; 2.81 µM in the assay on SK-MEL-5 melanoma; 5.55 µM with U251 CNS; 6.08 µM in the assay on MALME-3M melanoma; 5.91 µM in the assay on SNB-19 CNS; 50.2 µM in the assay on OVCAR-4 ovarian. The GI50 was 7.37 µM with SK-MEL-28 melanoma, 5.28 µM in the assay with SK-OV-3 ovarian, 3.89 µM with MCF7 breast and 2.65 µM in the assay on K-562 leukemia. Further, the concentration for total growth inhibition (TGI) with M14 melanoma, in the assay on SK-MEL-5 melanoma, in the assay on U251 CNS, with MALME-3M melanoma, with SNB-19 CNS and with OVCAR-4 ovarian was over 100 µM each time. For the same molecule, the total growth inhibition concentration (TGI) in the assay with SK-MEL-28 melanoma, in the assay on SK-OV-3 ovarian, in the assay with MCF7 breast and with K-562 leukemia was over 100 µM in each case.
